This is an account of results in ChEMBL document CHEMBL1201862, “PubChem BioAssay data set” (2004).

Some test systems named below: A498; COLO 205; EKVX; HCT-15; KM12; M14; MOLT-4; NCI-H226; NCI-H23; OVCAR-4; OVCAR-5; SF-295; SF-539; SN12C; SNB-19; SNB-75; SR; SW-620; U-251; UACC-62.
Holding throughout (experiment): growth of human tumour cells (NCI), 48 h

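Method: 48-hour compound exposure of cells in 96-well plates, five concentrations, linear interpolation of endpoints. GI50 marks 50% less growth.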 Activity calls are given as the source filed them. Cut-off read from the data, not from the text of the source: active = GI50 up to about 1.1 µM and inactive = higher.

In the case of `COc1cc([N+](=O)[O-])ccc1NC(=O)c1cccc([N+](=O)[O-])c1O`, the GI50 with A498 was 17.9 µM (inactive); in the experiment on COLO 205, 16 µM (inactive); in the experiment on EKVX, 29.1 µM (inactive); in the experiment on HCT-15, 18.1 µM; in the experiment with KM12, 29.5 µM (inactive); in the experiment with M14 it was 45 µM (inactive). Further, the GI50 in the experiment with MOLT-4 was 30.9 µM (inactive); with NCI-H226 it was 38.7 µM (inactive); in the experiment on NCI-H23, 20.4 µM (inactive); with OVCAR-4, 23.4 µM (inactive); with OVCAR-5 it was 41.3 µM (inactive); in the experiment with SF-295, 23.4 µM (inactive). Also, the GI50 was 23.1 µM (inactive) with SF-539; 14.7 µM (inactive) with SN12C; 41.5 µM (inactive) in the experiment with SNB-19; 21.1 µM (inactive) in the experiment with SNB-75; 17.8 µM (inactive) in the experiment with SR; 30.8 µM (inactive) in the experiment on SW-620. In addition, the results for the GI50 in the experiment with U-251 and with UACC-62 were 40.1 µM (inactive) and 9.2 µM (inactive), respectively.

With `O=C1c2ccccc2N1C(=O)c1ccccc1[N+](=O)[O-]`, the GI50 is > 100 µM (inactive) with A498; 61.1 µM (inactive) with COLO 205; > 100 µM (inactive) in the experiment on EKVX; 44.2 µM with HCT-15; 50 µM (inactive) with KM12; 59.7 µM (inactive) in the experiment with M14. In addition, the GI50 in the experiment on MOLT-4 is > 100 µM (inactive); in the experiment on NCI-H226, 12.3 µM (inactive); in the experiment on NCI-H23, > 100 µM (inactive); with OVCAR-4 it was 30 µM (inactive); in the experiment on OVCAR-5 it was > 100 µM (inactive); in the experiment with SF-539 it was 32.2 µM (inactive). The GI50 in the experiment with SNB-19 was > 100 µM (inactive); in the experiment on SNB-75 it was 53.3 µM (inactive); in the experiment on SR, > 100 µM (inactive); in the experiment with SW-620, > 100 µM (inactive); with U-251, 90.6 µM (inactive); in the experiment with UACC-62, > 100 µM (inactive).
